Source: the supplement of paper PMC6045584
± gives the standard deviation of the averaged measurements.

Experiments:
[1] = compound: CN1CC[C@H](c2c(O)cc(O)c3c(=O)cc(-c4ccccc4Cl)oc23)[C@H](O)C1 [FLAVOPIRIDOL]; assay: surviving fraction relative to DMSO-only wells; higher = less growth inhibition; settings: exposure time: 5 days
How it was run: (§1)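 Surviving fraction is CellTiter-Glo luminescence divided by the median of wells given DMSO only. For this, log-phase tumour cell lines went into 384-well plates at 250–500 cells per well and, 24 hours later, into five days of continuous inhibitor exposure at 0.5, 1, 5, 10, 50, 100, 500 and 1000 nM. Lines were screened three times and retained only if replicate Pearson r >0.7 and median Z' >0.3.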

[2] = compound: CS(=O)(=O)CCNCc1ccc(-c2ccc3ncnc(Nc4ccc(OCc5cccc(F)c5)c(Cl)c4)c3c2)o1 [LAPATINIB]; assay: as above; settings: exposure time: 5 days
How it was run: as §1

Test System | surviving fraction ([1]; 0.5 nM) | surviving fraction ([1]; 1 nM) | surviving fraction ([1]; 5 nM) | surviving fraction ([1]; 10 nM) | surviving fraction ([1]; 50 nM) | surviving fraction ([1]; 100 nM) | surviving fraction ([1]; 500 nM) | surviving fraction ([1]; 1000 nM) | surviving fraction ([2]; 0.5 nM) | surviving fraction ([2]; 1 nM) | surviving fraction ([2]; 5 nM) | surviving fraction ([2]; 10 nM) | surviving fraction ([2]; 50 nM) | surviving fraction ([2]; 100 nM) | surviving fraction ([2]; 500 nM) | surviving fraction ([2]; 1000 nM)
MDAMB361 BREAST | 0.919 ± 0.18 | 0.814 ± 0.066 | 0.841 ± 0.05 | 0.861 ± 0.13 | 0.937 ± 0.13 | 0.719 ± 0.039 | 0.223 ± 0.021 | 0.229 ± 0.022 | 0.891 ± 0.12 | 0.823 ± 0.11 | 0.902 ± 0.096 | 0.874 ± 0.065 | 0.864 ± 0.028 | 0.711 ± 0.041 | 0.724 ± 0.096 | 0.672 ± 0.069
SG32 HEADNECK | 1.14 ± 0.2 | 1.28 ± 0.092 | 1.07 ± 0.24 | 0.823 ± 0.14 | 0.227 ± 0.063 | 0.048 ± 0.01 | 0.0283 ± 0.013 | 0.0237 ± 0.0046 | 1.05 ± 0.22 | 1.02 ± 0.1 | 1.07 ± 0.14 | 1.12 ± 0.17 |  | 1.67 ± 0.82 | 0.905 ± 0.23 | 0.801 ± 0.18
CAL120 BREAST | 0.971 ± 0.055 | 0.972 ± 0.029 | 0.955 ± 0.058 | 0.949 ± 0.03 | 0.73 ± 0.034 | 0.314 ± 0.051 | 0.0425 ± 0.003 | 0.0403 ± 0.0016 | 1.02 ± 0.052 | 1.03 ± 0.044 | 1.02 ± 0.043 | 1 ± 0.039 | 1.04 ± 0.042 | 1.03 ± 0.075 | 0.998 ± 0.052 | 0.994 ± 0.045
MDAMB453 BREAST | 1.039 ± 0.0056 | 1.03 ± 0.071 | 1.1 ± 0.083 | 1.01 ± 0.02 | 0.586 ± 0.056 | 0.134 ± 0.022 | 0.085 ± 0.017 | 0.074 ± 0.025 | 1.06 ± 0.024 | 1.04 ± 0.061 | 1.09 ± 0.099 | 1.11 ± 0.12 | 0.993 ± 0.026 | 1.04 ± 0.018 | 0.868 ± 0.043 | 0.752 ± 0.024
DU4475 BREAST | 1.05 ± 0.1 | 1.08 ± 0.12 | 0.83 ± 0.07 | 0.914 ± 0.16 | 0.162 ± 0.021 | 0.0273 ± 0.0021 | 0.025 ± 0.0027 | 0.0267 ± 0.0021 | 0.907 ± 0.062 | 1.1 ± 0.13 | 1.02 ± 0.079 | 0.944 ± 0.017 | 1.07 ± 0.12 | 0.957 ± 0.11 | 1.14 ± 0.11 | 0.932 ± 0.025
NCIH441 LUNG | 1.18 ± 0.06 | 1.12 ± 0.026 | 1.09 ± 0.042 | 1.08 ± 0.11 | 0.953 ± 0.081 | 0.698 ± 0.17 | 0.103 ± 0.024 | 0.0917 ± 0.024 | 1.06 ± 0.071 | 1.07 ± 0.12 | 1.08 ± 0.059 | 1.17 ± 0.067 | 1.03 ± 0.053 | 1.09 ± 0.043 | 1 ± 0.061 | 1.18 ± 0.054
CASKI CERVIX | 0.918 ± 0.045 | 0.969 ± 0.031 | 0.919 ± 0.055 | 0.888 ± 0.056 | 0.284 ± 0.028 | 0.0293 ± 0.0015 | 0.022 ± 0.001 | 0.0253 ± 0.00058 | 0.884 ± 0.037 | 0.902 ± 0.013 | 0.952 ± 0.042 | 0.818 ± 0.042 | 0.775 ± 0.044 | 0.685 ± 0.021 | 0.426 ± 0.013 | 0.321 ± 0.013
SJSA1 BONE | 0.135 ± 0.0078 | 0.272 ± 0.042 | 1.71 ± 0.2 | 0.209 ± 0.011 | 0.0583 ± 0.0059 | 1.74 ± 0.06 | 1.64 ± 0.076 | 0.776 ± 0.074 | 1.471 ± 0.007 | 1.67 ± 0.035 | 1.67 ± 0.09 | 1.72 ± 0.04 | 1.62 ± 0.095 | 1.47 ± 0.077 | 1.42 ± 0.022 | 1.75 ± 0.037
BT549 BREAST | 1.17 ± 0.052 | 1.13 ± 0.094 | 1.11 ± 0.07 | 0.994 ± 0.021 | 0.454 ± 0.035 | 0.074 ± 0.012 | 0.0343 ± 0.005 | 0.035 ± 0.007 | 1.1 ± 0.073 | 1.01 ± 0.081 | 0.971 ± 0.044 | 1.06 ± 0.043 | 1.07 ± 0.1 | 1.03 ± 0.054 | 1.15 ± 0.14 | 0.977 ± 0.085
SCC36 HEADNECK | 0.982 ± 0.1 | 0.974 ± 0.062 | 1.14 ± 0.16 | 1.24 ± 0.15 | 0.962 ± 0.086 | 0.405 ± 0.0093 | 0.036 ± 0.0035 | 0.032 ± 0.001 | 1.03 ± 0.067 | 1.1 ± 0.089 | 1.08 ± 0.062 | 1.11 ± 0.051 | 0.918 ± 0.049 | 0.883 ± 0.067 | 0.543 ± 0.051 | 0.394 ± 0.043
HCC1806 BREAST | 0.833 ± 0.14 | 0.959 ± 0.059 | 1.03 ± 0.08 | 1.06 ± 0.062 | 0.586 ± 0.038 | 0.093 ± 0.0078 | 0.0207 ± 0.00058 | 0.0217 ± 0.00058 | 1.01 ± 0.083 | 1.12 ± 0.028 | 1.09 ± 0.04 | 1.09 ± 0.079 | 0.992 ± 0.018 | 1.11 ± 0.033 | 0.715 ± 0.025 | 0.65 ± 0.082
SG43 HEADNECK | 1.04 ± 0.084 | 1.18 ± 0.081 | 0.885 ± 0.11 | 1.07 ± 0.044 | 0.812 ± 0.049 | 0.562 ± 0.12 | 0.028 ± 0.0062 | 0.033 ± 0.0076 | 0.869 ± 0.17 | 0.93 ± 0.22 | 0.84 ± 0.095 | 0.821 ± 0.067 | 0.711 ± 0.23 | 0.494 ± 0.12 | 0.304 ± 0.011 | 0.314 ± 0.13
MG63 BONE | 1.06 ± 0.022 | 1.06 ± 0.023 | 1.165 ± 0.0064 | 1.19 ± 0.033 | 1.35 ± 0.045 | 0.782 ± 0.049 | 0.0347 ± 0.0023 | 0.0313 ± 0.0015 | 0.98 ± 0.029 | 1.04 ± 0.027 | 1.06 ± 0.035 | 1.07 ± 0.035 | 1.04 ± 0.039 | 1.08 ± 0.023 | 1.09 ± 0.017 | 1.11 ± 0.038
ZR751 BREAST | 1.28 ± 0.14 | 1.25 ± 0.051 | 1.21 ± 0.037 | 1.25 ± 0.033 | 1.108 ± 0.0081 | 0.453 ± 0.057 | 0.089 ± 0.0095 | 0.0853 ± 0.0065 | 0.879 ± 0.09 | 0.898 ± 0.17 | 1.01 ± 0.08 | 1.1 ± 0.23 | 0.816 ± 0.069 | 0.785 ± 0.031 | 0.662 ± 0.038 | 0.746 ± 0.062
CAL51 BREAST | 1.02 ± 0.065 | 0.983 ± 0.092 | 1.02 ± 0.056 | 0.877 ± 0.092 | 0.528 ± 0.0091 | 0.0968 ± 0.014 | 0.0297 ± 0.00058 | 0.03133 ± 0.00029 | 0.966 ± 0.078 | 1.08 ± 0.024 | 1.03 ± 0.055 | 1.02 ± 0.04 | 0.994 ± 0.042 | 1.08 ± 0.032 | 1.02 ± 0.089 | 0.989 ± 0.03
MDAMB468 BREAST | 1.03 ± 0.031 | 0.967 ± 0.064 | 1.03 ± 0.045 | 0.991 ± 0.04 | 0.734 ± 0.061 | 0.15 ± 0.016 | 0.0447 ± 0.005 | 0.04 ± 0.0061 | 1.07 ± 0.019 | 1.01 ± 0.042 | 1.13 ± 0.054 | 1.09 ± 0.08 | 1.086 ± 0.01 | 1.1 ± 0.051 | 0.948 ± 0.043 | 0.785 ± 0.058
MCF7 BREAST | 0.982 ± 0.083 | 0.973 ± 0.031 | 0.979 ± 0.032 | 0.865 ± 0.031 | 0.816 ± 0.038 | 0.167 ± 0.011 | 0.163 ± 0.024 | 0.157 ± 0.0056 | 0.988 ± 0.053 | 0.921 ± 0.032 | 0.931 ± 0.049 | 0.962 ± 0.043 | 0.961 ± 0.057 | 0.946 ± 0.096 | 0.946 ± 0.061 | 0.916 ± 0.023
HU09 BONE | 1.06 ± 0.12 | 1.08 ± 0.037 | 1.22 ± 0.14 | 1.08 ± 0.082 | 0.638 ± 0.051 | 0.0337 ± 0.0032 | 0.024 | 0.025 ± 0.0017 | 0.937 ± 0.082 | 0.937 ± 0.031 | 1.04 ± 0.1 | 1.04 ± 0.089 | 1 ± 0.056 | 1.04 ± 0.13 | 0.891 ± 0.043 | 0.798 ± 0.021
SYO1 SYNOVIAL | 1.02 ± 0.044 | 1 ± 0.064 | 0.972 ± 0.073 | 0.881 ± 0.05 | 0.515 ± 0.0082 | 0.144 ± 0.0063 | 0.0511 ± 0.0021 | 0.0522 ± 0.004 | 0.992 ± 0.026 | 1.03 ± 0.08 | 0.976 ± 0.034 | 1.04 ± 0.041 | 0.938 ± 0.033 | 0.976 ± 0.032 | 0.966 ± 0.026 | 0.975 ± 0.021
